ChEMBL document CHEMBL5150026, “Selective butyrylcholinesterase inhibition by isatin dimers and 3-indolyl-3-hydroxy-2-oxindole dimers” (Bioorg Med Chem Lett, 2022)
Activity calls are given as the source filed them. The calls are words filed in the database; no cut-off is given here.

Key:
Cholinesterase = Cholinesterase (Equus caballus, UniProt P81908)
Description: Inhibition of equine serum BuChE by Ellman's method

Acetylcholinesterase = Acetylcholinesterase (Electrophorus electricus, UniProt O42275)
Description: Inhibition of electric eel AChE by Ellman's method

[1] = biological target: Cholinesterase (Equus caballus) (UniProt P81908); assay: Mixed reversible inhibition of equine serum BuChE assessed as decrease in Vmax and increase in Km at 1.56 to 6.25 uM by Lineweaver-burk plot analysis; details: dose 1.56-6.25 µM
[2] = biological target: Cholinesterase (Equus caballus) (UniProt P81908); assay: Potency index,ratio of isatin IC50 to test compound IC50 for inhibition of equine serum BuChE
[3] = biological target: Cholinesterase (Equus caballus) (UniProt P81908); assay: Mixed reversible inhibition of equine serum BuChE assessed as decrease in Vmax and increase in Km at 3.13 to 12.5 uM by Lineweaver-burk plot analysis; details: dose 3.13-12.5 µM

Chain of Cholinesterase (Equus caballus) (P81908 whole entry): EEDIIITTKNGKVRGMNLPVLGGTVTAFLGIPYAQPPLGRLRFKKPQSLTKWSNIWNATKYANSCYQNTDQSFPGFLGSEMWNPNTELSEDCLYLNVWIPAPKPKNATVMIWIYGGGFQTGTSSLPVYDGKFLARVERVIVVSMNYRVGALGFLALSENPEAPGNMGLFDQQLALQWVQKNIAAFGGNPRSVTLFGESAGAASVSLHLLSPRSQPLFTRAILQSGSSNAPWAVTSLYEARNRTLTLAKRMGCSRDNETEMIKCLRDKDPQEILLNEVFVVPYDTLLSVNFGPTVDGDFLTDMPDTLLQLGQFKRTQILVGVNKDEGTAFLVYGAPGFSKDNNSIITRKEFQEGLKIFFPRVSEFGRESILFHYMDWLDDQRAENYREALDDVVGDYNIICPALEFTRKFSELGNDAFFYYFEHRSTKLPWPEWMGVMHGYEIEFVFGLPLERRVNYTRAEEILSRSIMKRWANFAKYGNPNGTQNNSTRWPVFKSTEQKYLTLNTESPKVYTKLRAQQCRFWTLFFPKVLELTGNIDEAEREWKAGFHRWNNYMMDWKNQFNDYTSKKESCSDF
Chain of Cholinesterase (P81908 whole entry): as above
Chain of Acetylcholinesterase (O42275 whole entry): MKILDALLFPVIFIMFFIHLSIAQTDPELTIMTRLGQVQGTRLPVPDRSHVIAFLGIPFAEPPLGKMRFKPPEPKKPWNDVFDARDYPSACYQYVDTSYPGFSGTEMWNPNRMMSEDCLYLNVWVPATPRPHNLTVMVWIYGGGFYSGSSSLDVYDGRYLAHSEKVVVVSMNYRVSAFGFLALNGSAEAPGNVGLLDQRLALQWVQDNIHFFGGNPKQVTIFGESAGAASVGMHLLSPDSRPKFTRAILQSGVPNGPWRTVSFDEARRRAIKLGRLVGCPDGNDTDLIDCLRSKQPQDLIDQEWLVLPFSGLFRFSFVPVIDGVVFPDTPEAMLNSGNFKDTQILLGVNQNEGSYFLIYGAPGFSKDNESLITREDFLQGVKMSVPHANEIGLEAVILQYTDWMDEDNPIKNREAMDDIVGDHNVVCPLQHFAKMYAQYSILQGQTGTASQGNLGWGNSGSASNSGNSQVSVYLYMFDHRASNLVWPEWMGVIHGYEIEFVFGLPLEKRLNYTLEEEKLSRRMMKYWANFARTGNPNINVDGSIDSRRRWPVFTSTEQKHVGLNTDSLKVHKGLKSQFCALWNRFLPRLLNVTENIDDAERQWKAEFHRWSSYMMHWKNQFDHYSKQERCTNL

Compound `O=C1N(CCCCCCN2C(=O)C(O)(c3c[nH]c4ccccc34)c3ccccc32)c2ccccc2C1(O)c1c[nH]c2ccccc12` (centres undefined) has an IC50 (Cholinesterase) of 14 µM and an IC50 (Acetylcholinesterase) greater than 50 µM.
Work on `O=C1C(=O)N(CCCCCN2C(=O)C(=O)c3ccccc32)c2ccccc21` yielded an IC50 (Cholinesterase) of 7.56 µM and an IC50 (Acetylcholinesterase) greater than 50 µM.
Work on `O=C1C(=O)N(CCCCCCCCN2C(=O)C(=O)c3ccccc32)c2ccccc21` yielded an IC50 (Cholinesterase) greater than 50 µM and an IC50 (Acetylcholinesterase) greater than 50 µM.
Compound `O=C1Nc2ccccc2C1=O` [ISATIN] has an IC50 (Cholinesterase) greater than 1000 µM and an IC50 (Acetylcholinesterase) greater than 1000 µM.
`O=C1Nc2ccccc2C1(O)c1c[nH]c2ccccc12` (centres undefined) showed an IC50 (Cholinesterase) of 357 µM and an IC50 (Acetylcholinesterase) of 1300 µM.
`O=C1N(CCCN2C(=O)C(O)(c3c[nH]c4ccccc34)c3ccccc32)c2ccccc2C1(O)c1c[nH]c2ccccc12` (centres undefined) was tested, and the IC50 (Cholinesterase) was 6.47 µM and the IC50 (Acetylcholinesterase) was greater than 50 µM.
`O=C1C(=O)N(CCCCCCCN2C(=O)C(=O)c3ccccc32)c2ccccc21` was tested, and the IC50 (Cholinesterase) was 3.2 µM, the inhibition [1] was “Active” and the IC50 (Acetylcholinesterase) was greater than 50 µM. The Ratio IC50 [2] was 300.
In the case of `O=C1C(=O)N(CCCCCCN2C(=O)C(=O)c3ccccc32)c2ccccc21`, the IC50 (Cholinesterase) is reported as greater than 50 µM and the IC50 (Acetylcholinesterase) is reported as greater than 50 µM.
In the case of `O=C1N(CCCCCN2C(=O)C(O)(c3c[nH]c4ccccc34)c3ccccc32)c2ccccc2C1(O)c1c[nH]c2ccccc12` (centres undefined), the inhibition [3] is reported as “Active” and the IC50 (Acetylcholinesterase) is reported as greater than 50 µM.
In the case of `O=C1N(CCCCCCCCN2C(=O)C(O)(c3c[nH]c4ccccc34)c3ccccc32)c2ccccc2C1(O)c1c[nH]c2ccccc12` (centres undefined), the IC50 (Cholinesterase) is reported as greater than 25 µM and the IC50 (Acetylcholinesterase) is reported as greater than 50 µM.
For `O=C1C(=O)N(CCN2C(=O)C(=O)c3ccccc32)c2ccccc21`, the IC50 (Cholinesterase) was greater than 125 µM and the IC50 (Acetylcholinesterase) was greater than 125 µM.
Work on `O=C1C(=O)N(CCCCN2C(=O)C(=O)c3ccccc32)c2ccccc21` yielded an IC50 (Cholinesterase) of 34.7 µM and an IC50 (Acetylcholinesterase) greater than 125 µM.
Work on `O=C1N(CCCCN2C(=O)C(O)(c3c[nH]c4ccccc34)c3ccccc32)c2ccccc2C1(O)c1c[nH]c2ccccc12` (centres undefined) yielded an IC50 (Cholinesterase) of 11.8 µM and an IC50 (Acetylcholinesterase) greater than 50 µM.
Work on `O=C1N(CCN2C(=O)C(O)(c3c[nH]c4ccccc34)c3ccccc32)c2ccccc2C1(O)c1c[nH]c2ccccc12` (centres undefined) yielded an IC50 (Cholinesterase) greater than 50 µM and an IC50 (Acetylcholinesterase) greater than 50 µM.
`O=C1N(CCCCCCCN2C(=O)C(O)(c3c[nH]c4ccccc34)c3ccccc32)c2ccccc2C1(O)c1c[nH]c2ccccc12` (centres undefined) gave an IC50 (Cholinesterase) of 13.2 µM and an IC50 (Acetylcholinesterase) greater than 50 µM.
`O=C1C(=O)N(CCCN2C(=O)C(=O)c3ccccc32)c2ccccc21` was tested, and the IC50 (Cholinesterase) was greater than 125 µM and the IC50 (Acetylcholinesterase) was greater than 125 µM.
